Results published in US12281095B2, “Pesticidally active diazine-amide compounds” (SYNGENTA CROP PROTECTION AG, priority 2019, dated 2025).

Columns and labels:
Format in all cases: in vivo
[1] = tested on: Diabrotica balteata (Corn Root Worm); assay: Example B1: Diabrotica balteata (Corn Root Worm), sprayed maize sprouts; conditions: 96 h, application rate of 200 ppm, L2 larvae, 4 days after infestation, read-out: control in at least one of the two categories (mortality or growth inhibition)
Protocol: Example B1: Diabrotica balteata (Corn Root Worm)
Maize sprouts placed onto an agar layer in 24-well microtiter plates were treated with aqueous test solutions prepared from 10′000 ppm DMSO stock solutions by spraying. After drying, the plates were infested with L2 larvae (6 to 10 per well). The samples were assessed for mortality and growth inhibition in comparison to untreated samples 4 days after infestation.

[2] = tested on: Chilo suppressalis (Striped Rice Stemborer); assay: Example B4: Chilo suppressalis (Striped Rice Stemborer), artificial diet; conditions: 144 h, application rate of 200 ppm, L2 larvae, 6 days after infestation, read-out: control in at least one of the three categories (mortality, anti-feedant or growth inhibition)
Protocol: Example B4: Chilo suppressalis (Striped Rice Stemborer)
24-well microtiter plates with artificial diet were treated with aqueous test solutions prepared from 10′000 ppm DMSO stock solutions by pipetting. After drying, the plates were infested with L2 larvae (6-8 per well). The samples were assessed for mortality, anti-feeding effect, and growth inhibition in comparison to untreated samples 6 days after infestation. Control of Chilo suppressalis by a test sample is given when at least one of the categories mortality, anti-feedant effect, and growth inhibition is higher than the untreated sample.

[3] = tested on: Plutella xylostella (Diamond Back Moth); assay: Example B5: Plutella xylostella (Diamond Back Moth), artificial diet, 24-well; conditions: 192 h, application rate of 200 ppm, eggs, 8 days after infestation, read-out: control in at least one of the two categories (mortality or growth inhibition)
Protocol: Example B5: Plutella xylostella (Diamond Back Moth)
24-well microtiter plates with artificial diet were treated with aqueous test solutions prepared from 10′000 ppm DMSO stock solutions by pipetting. After drying, Plutella eggs were pipetted through a plastic stencil onto a gel blotting paper and the plate was closed with it. The samples were assessed for mortality and growth inhibition in comparison to untreated samples 8 days after infestation.

[4] = tested on: Spodoptera littoralis (Egyptian Cotton Leaf Worm); assay: Example B9: Spodoptera littoralis (Egyptian Cotton Leaf Worm), sprayed cotton leaf discs; conditions: foliar, 72 h, application rate of 200 ppm, L1 larvae, 3 days after infestation, read-out: control in at least one of the three categories (mortality, anti-feedant or growth inhibition)
[5] = tested on: Plutella xylostella (Diamondback Moth); assay: Example B13: Plutella xylostella (Diamondback Moth), artificial diet, 96-well; conditions: 216 h, application rate of 500 ppm, eggs/L1 larvae, 9 days after infestation
Protocol: Example B13: Plutella xylostella (Diamondback Moth)
96-well microtiter plates containing artificial diet were treated with aqueous test solutions, prepared from 10′000 ppm DMSO stock solutions, by a liquid handling robot. After drying, eggs (˜30 per well) were infested onto a netted lid which was suspended above the diet. The eggs hatch and L1 larvae move down to the diet. The samples were assessed for mortality 9 days after infestation.

CC(NC(=O)c1cc(C(F)(F)F)cc(C(C)(C)C#N)c1)c1nccnc1-c1ccc(OC(F)F)cn1 (centres unmarked) [P13, 3-(1-cyano-1-methyl-ethyl)-N-[1-[3-[5-(difluoromethoxy)-2-pyridyl]pyrazin-2-yl]ethyl]-5-(trifluoromethyl)benzamide]
≥ 80%: percent control (mortality or growth inhibition) at 200 ppm [1] | percent control (mortality, anti-feedant effect or growth inhibition) at 200 ppm [2] | percent control (mortality or growth inhibition) at 200 ppm [3] | percent control (mortality, anti-feedant effect or growth inhibition) at 200 ppm [4]

CC(NC(=O)c1cc(C2CC2)cc(C(F)(F)F)c1)c1nccnc1-c1ccc(OC(F)F)cn1 (centres unmarked) [P7, 3-cyclopropyl-N-[1-[3-[5-(difluoromethoxy)-2-pyridyl]pyrazin-2-yl]ethyl]-5-(trifluoromethyl)benzamide]
≥ 80%: percent control (mortality or growth inhibition) at 200 ppm [1] | percent control (mortality, anti-feedant effect or growth inhibition) at 200 ppm [2] | percent control (mortality or growth inhibition) at 200 ppm [3] | percent control (mortality, anti-feedant effect or growth inhibition) at 200 ppm [4]

CC(NC(=O)c1cc(C2CC2)cc(C(F)(F)F)c1)c1nccnc1-c1ccc(OCC(F)F)cn1 (centres unmarked) [P26, 3-cyclopropyl-N-[1-[3-[5-(2,2-difluoroethoxy)-2-pyridyl]pyrazin-2-yl]ethyl]-5-(trifluoromethyl)benzamide]
≥ 80%: mortality at 500 ppm [5] | percent control (mortality, anti-feedant effect or growth inhibition) at 200 ppm [2] | percent control (mortality or growth inhibition) at 200 ppm [3] | percent control (mortality, anti-feedant effect or growth inhibition) at 200 ppm [4]

CC(NC(=O)c1cc(C(F)(F)F)cc(C(F)(F)C2CC2)c1)c1nccnc1-c1ncc(OCC(F)F)cn1 (centres unmarked) [P39, 3-[cyclopropyl(difluoro)methyl]-N-[1-[3-[5-(2,2-difluoroethoxy)pyrimidin-2-yl]pyrazin-2-yl]ethyl]-5-(trifluoromethyl)benzamide]
≥ 80%: mortality at 500 ppm [5] | percent control (mortality, anti-feedant effect or growth inhibition) at 200 ppm [2] | percent control (mortality or growth inhibition) at 200 ppm [3] | percent control (mortality, anti-feedant effect or growth inhibition) at 200 ppm [4]

CC(NC(=O)c1cc(C(F)(F)F)cc(S(=O)(=O)C(F)(F)F)c1)c1nccnc1-c1ccc(OCC(F)F)cn1 (centres unmarked) [P20, N-[1-[3-[5-(2,2-difluoroethoxy)-2-pyridyl]pyrazin-2-yl]ethyl]-3-(trifluoromethyl)-5-(trifluoromethylsulfonyl)benzamide]
≥ 80%: mortality at 500 ppm [5] | percent control (mortality, anti-feedant effect or growth inhibition) at 200 ppm [2]

CC(NC(=O)c1cc(C(F)(F)F)cc(C2(C#N)CC2)c1)c1nccnc1-c1ccc(OC(F)F)cn1 (centres unmarked) [P3, 3-(1-cyanocyclopropyl)-N-[1-[3-[5-(difluoromethoxy)-2-pyridyl]pyrazin-2-yl]ethyl]-5-(trifluoromethyl)benzamide]
≥ 80%: percent control (mortality or growth inhibition) at 200 ppm [1] | percent control (mortality, anti-feedant effect or growth inhibition) at 200 ppm [2] | percent control (mortality or growth inhibition) at 200 ppm [3] | percent control (mortality, anti-feedant effect or growth inhibition) at 200 ppm [4]

COC1(c2cc(C(=O)NC(C)c3nccnc3-c3ccc(C#N)cn3)cc(C(F)(F)F)c2)CC1 (centres unmarked) [P46, N-[1-[3-(5-cyano-2-pyridyl)pyra-zin-2-yl]ethyl]-3-(1-methoxycyclopropyl)-5-(trifluoromethyl)benzamide]
≥ 80%: percent control (mortality or growth inhibition) at 200 ppm [1] | percent control (mortality, anti-feedant effect or growth inhibition) at 200 ppm [2] | percent control (mortality or growth inhibition) at 200 ppm [3] | percent control (mortality, anti-feedant effect or growth inhibition) at 200 ppm [4]

C[C@@H](c1nccnc1-c1ccc(C#N)cn1)N(CC1CC1)C(=O)c1cc(C(F)(F)F)cc(C(F)(F)C2CC2)c1 [P43, N-[(1S)-1-[3-(5-cyano-2-pyridyl)pyrazin-2-yl]ethyl]-3-[cyclopropyl(difluoro)methyl]-N-(cyclopropylmethyl)-5-(trifluoromethyl)benzamide]
≥ 80%: percent control (mortality or growth inhibition) at 200 ppm [1] | percent control (mortality, anti-feedant effect or growth inhibition) at 200 ppm [2] | percent control (mortality or growth inhibition) at 200 ppm [3] | percent control (mortality, anti-feedant effect or growth inhibition) at 200 ppm [4]

CC(NC(=O)c1cc(C2CC2)cc(C(F)(F)F)c1)c1nccnc1-c1ncc(OCC(F)(F)F)cn1 (centres unmarked) [P6, 3-cyclopropyl-N-[1-[3-[5-(2,2,2-trifluoroethoxy)pyrimidin-2-yl]pyrazin-2-yl]ethyl]-5-(trifluoromethyl)benzamide]
≥ 80%: percent control (mortality or growth inhibition) at 200 ppm [1] | percent control (mortality, anti-feedant effect or growth inhibition) at 200 ppm [2] | percent control (mortality or growth inhibition) at 200 ppm [3] | percent control (mortality, anti-feedant effect or growth inhibition) at 200 ppm [4]

CC(NC(=O)c1cc(C(F)(F)F)nc(C2(C#N)CC2)c1)c1nccnc1-c1ccc(OC(F)F)cn1 (centres unmarked) [P1, 2-(1-cyanocyclopropyl)-N-[1-[3-[5-(difluoromethoxy)-2-pyridyl]pyrazin-2-yl]ethyl]-6-(trifluoromethyl)pyridine-4-carboxamide]
≥ 80%: percent control (mortality or growth inhibition) at 200 ppm [1] | percent control (mortality, anti-feedant effect or growth inhibition) at 200 ppm [2] | percent control (mortality or growth inhibition) at 200 ppm [3] | percent control (mortality, anti-feedant effect or growth inhibition) at 200 ppm [4]

CC(NC(=O)c1cc(C(F)(F)F)cc(C(F)(F)C2CC2)c1)c1nccnc1-c1ccc(OCC(F)(F)F)cn1 (centres unmarked) [P31, 3-[cyclopropyl(difluoro)methyl]-N-[1-[3-[5-(2,2,2-trifluoroethoxy)-2-pyridyl]pyrazin-2-yl]ethyl]-5-(trifluoromethyl)benzamide]
≥ 80%: mortality at 500 ppm [5]

CC(NC(=O)c1cc(C2CC2)cc(C(F)(F)F)c1)c1nccnc1-c1ccc(OCC(F)(F)F)cn1 (centres unmarked) [P27, 3-cyclopropyl-N-[1-[3-[5-(2,2,2-trifluoroethoxy)-2-pyridyl]pyrazin-2-yl]ethyl]-5-(trifluoromethyl)benzamide]
≥ 80%: mortality at 500 ppm [5] | percent control (mortality or growth inhibition) at 200 ppm [1] | percent control (mortality, anti-feedant effect or growth inhibition) at 200 ppm [2] | percent control (mortality or growth inhibition) at 200 ppm [3]

CC(NC(=O)c1cc(C(F)(F)F)cc(S(=O)(=O)C(F)(F)F)c1)c1nccnc1-c1ccc(C#N)cn1 (centres unmarked) [P15, N-[1-[3-(5-cyano-2-pyridyl)pyra-zin-2-yl]ethyl]-3-(trifluoromethyl)-5-(trifluoromethylsulfonyl)benza-mide]
≥ 80%: percent control (mortality, anti-feedant effect or growth inhibition) at 200 ppm [2] | percent control (mortality or growth inhibition) at 200 ppm [3] | percent control (mortality, anti-feedant effect or growth inhibition) at 200 ppm [4]

CC(NC(=O)c1cc(C(F)(F)F)nc(C2(C#N)CC2)c1)c1nccnc1-c1ccc(C#N)cn1 (centres unmarked) [P16, 2-(1-cyanocyclopropyl)-N-[1-[3-(5-cyano-2-pyridyl)pyrazin-2-yl]eth-yl]-6-(trifluoromethyl)pyridine-4-carboxamide]
≥ 80%: percent control (mortality or growth inhibition) at 200 ppm [1] | percent control (mortality, anti-feedant effect or growth inhibition) at 200 ppm [2] | percent control (mortality or growth inhibition) at 200 ppm [3] | percent control (mortality, anti-feedant effect or growth inhibition) at 200 ppm [4]

CC(NC(=O)c1cc(C(F)(F)F)cc(S(=O)(=O)C(F)(F)F)c1)c1nccnc1-c1ncc(OCC(F)(F)F)cn1 (centres unmarked) [P12, N-[1-[3-[5-(2,2,2-trifluoroethoxy)pyrimidin-2-yl]pyrazin-2-yl]ethyl]-3-(trifluoromethyl)-5-(trifluoromethylsulfonyl)benzamide]
≥ 80%: percent control (mortality, anti-feedant effect or growth inhibition) at 200 ppm [2] | percent control (mortality or growth inhibition) at 200 ppm [3] | percent control (mortality, anti-feedant effect or growth inhibition) at 200 ppm [4]

CC(NC(=O)c1cc(C(F)(F)F)cc(C(C)(C)C#N)c1)c1nccnc1-c1ncc(OC(F)F)cn1 (centres unmarked) [P8, 3-(1-cyano-1-methyl-ethyl)-N-[1-[3-[5-(difluoromethoxy)pyrimidin-2-yl]pyrazin-2-yl]ethyl]-5-(trifluoromethyl)benzamide]
≥ 80%: percent control (mortality or growth inhibition) at 200 ppm [1] | percent control (mortality, anti-feedant effect or growth inhibition) at 200 ppm [2] | percent control (mortality or growth inhibition) at 200 ppm [3] | percent control (mortality, anti-feedant effect or growth inhibition) at 200 ppm [4]

C[C@H](NC(=O)c1cc(C(F)(F)F)cc(C(F)(F)C2CC2)c1)c1nccnc1-c1ccc(C#N)cn1 [P42, N-[(1S)-1-[3-(5-cyano-2-pyridyl)pyrazin-2-yl]ethyl]-3-[cyclopropyl(difluoro)methyl]-5-(trifluoromethyl)benzamide]
≥ 80%: percent control (mortality or growth inhibition) at 200 ppm [1] | percent control (mortality, anti-feedant effect or growth inhibition) at 200 ppm [2] | percent control (mortality or growth inhibition) at 200 ppm [3] | percent control (mortality, anti-feedant effect or growth inhibition) at 200 ppm [4]

CC(NC(=O)c1cc(C(F)(F)F)cc(C(F)(F)C2CC2)c1)c1nccnc1-c1ncc(OCC(F)(F)F)cn1 (centres unmarked) [P4, 3-[cyclopropyl(difluoro)methyl]-N-[1-[3-[5-(2,2,2-trifluoroethoxy)pyrimidin-2-yl]pyrazin-2-yl]ethyl]-5-(trifluoromethyl)benzamide]
≥ 80%: percent control (mortality or growth inhibition) at 200 ppm [1] | percent control (mortality, anti-feedant effect or growth inhibition) at 200 ppm [2] | percent control (mortality or growth inhibition) at 200 ppm [3] | percent control (mortality, anti-feedant effect or growth inhibition) at 200 ppm [4]
